Patent US8158792B2, “Spiropiperidines for use as tryptase inhibitors” (Janssen Pharmaceutica N.V., priority 2007, dated 2012)

Target: human lung tryptase
Experiment: β-Tryptase In-Vitro Enzyme Assay
Assay type: biochemical
Conditions: human lung tryptase 1 nM, substrate H-D-HHT-Ala-Arg-pNa 500 μM, pH 7.4, room temperature
Experimental: The β-tryptase assay was conducted with human lung tryptase (Cortex Biochem #CP3033) in an aqueous buffer (10 mM Tris, 10 mM Hepes, 150 mM NaCl, 0.1% PEG 8000, pH 7.4) using the chromogenic substrate H-D-HHT-Ala-Arg-pNa. […] Percent inhibition was calculated by comparing the initial reaction velocity of samples without inhibitor to those with inhibitor. The initial reaction velocities were analyzed using Microsoft Excel.

Structure (SMILES) | IC50 [nM]
NCc1ccc2c(c1)C1(CCN(C(=O)c3ccc(-n4cc(-c5nc6ccccc6o5)cn4)cc3)CC1)CO2 [Cpd 17, 1-{4-[(4-benzoxazol-2-yl)-pyrazol-1-yl]-phenyl}carbonyl-5′-aminomethyl-spiro[piperidine-4,3′-(2H)-benzo[b]furan]] | 290
NCc1ccc2c(c1)C1(CCN(C(=O)/C=C/c3ccccn3)CC1)CO2 [Cpd 252, (E)-1-(pyridin-2-ylethenyl)carbonyl-5′-aminomethyl-spiro[piperidine-4,3′-(2H)-benzo[b]furan]] | 1600
NCc1ccc2c(c1)C1(CCN(C(=O)c3ccc(C#Cc4ccccc4)o3)CC1)CN2S(=O)(=O)c1ccsc1 [Cpd 359, 1-(5-phenylethynyl-furan-2-yl)carbonyl-1′-thien-3-ylsulfonyl-5′-aminomethyl-spiro[piperidine-4,3′-(2H)-indole]] | 15
NCc1ccc2c(c1)C1(CCN(C(=O)c3csc(-c4cccnc4)n3)CC1)CO2 [Cpd 121, 1-(2-pyridin-3-yl-thiazol-4-yl)carbonyl-5′-aminomethyl-spiro[piperidine-4,3′-(2H)-benzo[b]furan]] | 510
NCc1ccc2c(c1)C1(CCN(C(=O)/C(F)=C/c3ccccc3)CC1)CO2 [Cpd 162, (Z)-1-(1-fluoro-2-phenylethenyl)carbonyl-5′-aminomethyl-spiro[piperidine-4,3′-(2H)-benzo[b]furan]] | 79
NCc1ccc2c(c1)C1(CCN(C(=O)/C=C/c3ccc4c(c3)OCO4)CC1)CO2 [Cpd 187, (E)-1-(benzodioxol-5-ylethenyl)carbonyl-5′-aminomethyl-spiro[piperidine-4,3′-(2H)-benzo[b]furan]] | 790
C[SH]1C=C(C(F)(F)F)C2=C1NN(C(=O)N1CCC3(CC1)COc1ccc(CN)cc13)C2 (centres unmarked) [Cpd 276, 1-(4-trifluoromethyl-6-methyl-1H-thieno[2,3-c]pyrazol-2-yl)carbonyl-5′-aminomethyl-spiro[piperidine-4,3′-(2H)-benzo[b]furan]] | 150
NCc1ccc2c(c1)C1(CCN(C(=O)/C=C/c3ccoc3)CC1)CO2 [Cpd 251, (E)-1-(furan-3-ylethenyl)carbonyl-5′-aminomethyl-spiro[piperidine-4,3′-(2H)-benzo[b]furan]] | 1500
NCc1ccc2c(c1)C1(CCN(C(=O)c3ccc(C#Cc4ccccc4)o3)CC1)CN2S(=O)(=O)c1ccccc1 [Cpd 341, 1-(5-phenylethynyl-furan-2-yl)carbonyl-1′-phenylsulfonyl-5′-aminomethyl-spiro[piperidine-4,3′-(2H)-indole]] | 5.7
NCc1ccc2c(c1)C1(CCN(Cc3ccc(Cl)c(Cl)c3)CC1)CO2 [Cpd 158, 1-(3,4-dichloro-benzyl)-5′-aminomethyl-spiro[piperidine-4,3′-(2H)-benzo[b]furan]] | 4500
CNNC1CC(S(=O)(=O)N2CC3(CCN(C(=O)c4ccc(C#Cc5ccccc5)o4)CC3)c3cc(CN)ccc32)CS1(=O)=O (centres unmarked) [Cpd 338, 1-(5-phenylethynyl-furan-2-yl)carbonyl-1′-[5-(N′-methyl-hydrazino)-1,1-dioxo-3,4,5-trihydro-(2H)-thien-3-yl]sulfonyl-5′-aminomethyl-spiro[piperidine-4,3′-(2H)-indole]] | 73
CSc1sc(C(=O)N2CCC3(CC2)COc2ccc(CN)cc23)c2c1C=CCC2 [Cpd 219, 1-(3-methylthio-7-hydro-6H-benzo[c]thien-1-yl)carbonyl-5′-aminomethyl-spiro[piperidine-4,3′-(2H)-benzo[b]furan]] | 2.9
CS(=O)(=O)CS(=O)(=O)N1CC2(CCN(C(=O)c3ccc(C#Cc4ccccc4)o3)CC2)c2cc(CN)ccc21 [Cpd 348, 1-(5-phenylethynyl-furan-2-yl)carbonyl-1′-(methylsulfonylmethyl)sulfonyl-5′-aminomethyl-spiro[piperidine-4,3′-(2H)-indole]] | 24
NCc1ccc2c(c1)C1(CCN(C(=O)C#Cc3ccc(O)cc3)CC1)CO2 [Cpd 264, 1-(4-hydroxy-phenylethynyl)carbonyl-5′-aminomethyl-spiro[piperidine-4,3′-(2H)-benzo[b]furan]] | 3200

Further lines, results first:

IC50 [nM] | Structure (SMILES)
690 | Cc1nc(-c2ccccc2)sc1C(=O)N1CCC2(CC1)COc1ccc(CN)cc12 [Cpd 123, 1-(2-phenyl-4-methyl-thiazol-5-yl)carbonyl-5′-aminomethyl-spiro[piperidine-4,3′-(2H)-benzo[b]furan]]
95 | COc1ccc(-c2cccc(C(=O)N3CCC4(CC3)COc3ccc(CN)cc34)c2)cc1 [Cpd 64, 1-[3-(4-methoxy-phenyl)-phenyl]carbonyl-5′-aminomethyl-spiro[piperidine-4,3′-(2H)-benzo[b]furan]]
100 | NCc1ccc2c(c1)C1(CCN(C(=O)c3ccc(/C=C\c4ccccc4)o3)CC1)CO2 [Cpd 77, (Z)-1-(5-phenylethenyl-furan-2-yl)carbonyl-5′-aminomethyl-spiro[piperidine-4,3′-(2H)-benzo[b]furan]]
71 | NCc1ccc2c(c1)C1(CCN(C(=O)c3sc4ccccc4c3Cl)CC1)CO2 [Cpd 166, 1-(3-chloro-benzo[b]thien-2-yl)carbonyl-5′-aminomethyl-spiro[piperidine-4,3′-(2H)-benzo[b]furan]]
26 | NCc1ccc2c(c1)C1(CCN(C(=O)c3ccc(C#Cc4cccc5ccccc45)o3)CC1)CO2 [Cpd 177, 1-(5-naphthalen-1-ylethynyl-furan-2-yl)carbonyl-5′-aminomethyl-spiro[piperidine-4,3′-(2H)-benzo[b]furan]]
140 | NCc1ccc2c(c1)C1(CCN(C(=O)c3sc4cc(Br)ccc4c3Cl)CC1)CO2 [Cpd 230, 1-(3-chloro-6-bromo-benzo[b]thien-2-yl)carbonyl-5′-aminomethyl-spiro[piperidine-4,3′-(2H)-benzo[b]furan]]
41 | NCc1ccc2c(c1)C1(CCN(C(=O)c3ccc(C#Cc4cc(F)cc(F)c4)o3)CC1)CO2 [Cpd 176, 1-[5-(3,5-difluoro-phenylethynyl)-furan-2-yl]carbonyl-5′-aminomethyl-spiro[piperidine-4,3′-(2H)-benzo[b]furan]]
150 | CC1=C(C(=O)N2CCC3(CC2)COc2ccc(CN)cc23)Cc2ccccc21 [Cpd 192, 1-(1-methyl-3H-inden-2-yl)carbonyl-5′-aminomethyl-spiro[piperidine-4,3′-(2H)-benzo[b]furan]]
120 | COc1ccc(C(=O)N2CCC3(CC2)COc2ccc(CN)cc23)cc1Cl [Cpd 28, 1-(3-chloro-4-methoxy-phenyl)carbonyl-5′-aminomethyl-spiro[piperidine-4,3′-(2H)-benzo[b]furan]]
99 | NCc1ccc2c(c1)C1(CCN(C(=O)c3ccc(-c4cc(C(F)(F)F)ccc4Cl)o3)CC1)CO2 [Cpd 129, 1-[5-(2-chloro-5-trifluoromethyl-phenyl)-furan-2-yl]carbonyl-5′-aminomethyl-spiro[piperidine-4,3′-(2H)-benzo[b]furan]]
780 | NCc1ccc2c(c1)C1(CCN(C(=O)c3ccc4c(c3)S(=O)(=O)c3ccccc3C4=O)CC1)CO2 [Cpd 7, 1-(9-oxo-10,10-dioxo-thioxanthen-3-yl)carbonyl-5′-aminomethyl-spiro[piperidine-4,3′-(2H)-benzo[b]furan]]
17 | CSc1cc(-c2ccc(Cl)cc2)c(C(=O)N2CCC3(CC2)COc2ccc(CN)cc23)s1 [Cpd 299, 1-[3-(4-chloro-phenyl)-5-methylthio-thien-2-yl]carbonyl-5′-aminomethyl-spiro[piperidine-4,3′-(2H)-benzo[b]furan]]
12 | NCc1ccc2c(c1)C1(CCN(C(=O)c3cc(Br)c(Br)s3)CC1)CO2 [Cpd 278, 1-(4,5-dibromo-thien-2-yl)carbonyl-5′-aminomethyl-spiro[piperidine-4,3′-(2H)-benzo[b]furan]]
680 | NCc1ccc2c(c1)C1(CCN(C(=O)Cc3ccc4c(c3)OCO4)CC1)CO2 [Cpd 100, 1-benzodioxol-5-ylmethylcarbonyl-5′-aminomethyl-spiro[piperidine-4,3′-(2H)-benzo[b]furan]]
760 | NCc1ccc2c(c1)C1(CCN(C(=O)C=C3OC(=O)c4ccccc43)CC1)CO2 [Cpd 215, 1-[1-oxo-2-(3-oxo-3H-isobenzofuran-1-ylidene)-ethyl]-5′-aminomethyl-spiro[piperidine-4,3′-(2H)-benzo[b]furan]]
600 | COc1ccc(CC(=O)N2CCC3(CC2)COc2ccc(CN)cc23)cc1C [Cpd 102, 1-(3-methyl-4-methoxy-benzyl)carbonyl-5′-aminomethyl-spiro[piperidine-4,3′-(2H)-benzo[b]furan]]
73 | NCc1ccc2c(c1)C1(CCN(C(=O)c3ccc(Br)s3)CC1)CO2 [Cpd 198, 1-(5-bromo-thien-2-yl)carbonyl-5′-aminomethyl-spiro[piperidine-4,3′-(2H)-benzo[b]furan]]
330 | Cc1cc(C)nc(SCc2ccc(C(=O)N3CCC4(CC3)COc3ccc(CN)cc34)o2)n1 [Cpd 148, 1-[5-(4,6-dimethyl-pyrimidin-2-ylthiomethyl)-furan-2-yl]carbonyl-5′-aminomethyl-spiro[piperidine-4,3′-(2H)-benzo[b]furan]]
53 | NCc1ccc2c(c1)C1(CCN(C(=O)/C=C/c3ccccc3Cl)CC1)CO2 [Cpd 186, (E)-1-(2-chloro-phenylethenyl)carbonyl-5′-aminomethyl-spiro[piperidine-4,3′-(2H)-benzo[b]furan]]
110 | NCc1ccc2c(c1)C1(CCN(C(=O)c3ccc(Oc4cc(Cl)cc(Cl)c4)o3)CC1)CO2 [Cpd 149, 1-[5-(3,5-dichloro-phenoxy)-furan-2-yl]carbonyl-5′-aminomethyl-spiro[piperidine-4,3′-(2H)-benzo[b]furan]]
910 | NCc1ccc2c(c1)C1(CCN(C(=O)c3ccc(C(F)(F)F)cc3)CC1)CO2 [Cpd 71, 1-(4-trifluoromethyl-phenyl)carbonyl-5′-aminomethyl-spiro[piperidine-4,3′-(2H)-benzo[b]furan]]
